In ChEMBL document CHEMBL1649413, “Structure-activity relationship of 4(5)-aryl-2-amino-1H-imidazoles, N1-substituted 2-aminoimidazoles and imidazo[1,2-a]pyrimidinium salts as inhibitors of biofilm formation by Salmonella typhimurium and Pseudomonas aeruginosa” (J Med Chem, 2011):
Calls of active or inactive are those of the source. The calls are words filed in the database; no cut-off is given here.

Columns and labels:
Salmonella typhimurium [1] = assay: Antibiofilm activity in Salmonella Typhimurium ATCC 14028 assessed as inhibition of biofilm formation at 25 degC after 24 hrs; assay type: functional, organism-based, Salmonella enterica subsp. enterica serovar Typhimurium; details: Salmonella enterica, ATCC 14028, 24 h
Pseudomonas aeruginosa [2] = assay: Antimicrobial activity against Pseudomonas aeruginosa assessed as inhibition of planktonic growth at 40 uM at 25 degC after 24 hrs; assay type: functional, organism-based
Pseudomonas aeruginosa [3] = assay: Antimicrobial activity against Pseudomonas aeruginosa assessed as inhibition of planktonic growth at 10 uM at 25 degC after 24 hrs; assay type: functional, organism-based
Pseudomonas aeruginosa [4] = assay: Antibiofilm activity in Pseudomonas aeruginosa assessed as inhibition of biofilm formation at 25 degC after 24 hrs; assay type: functional, organism-based
Pseudomonas aeruginosa [5] = assay: Antimicrobial activity against Pseudomonas aeruginosa assessed as inhibition of planktonic growth at 80 uM at 25 degC after 24 hrs; assay type: functional, organism-based
Pseudomonas aeruginosa [6] = assay: Antimicrobial activity against Pseudomonas aeruginosa assessed as inhibition of planktonic growth at 5 uM at 25 degC after 24 hrs; assay type: functional, organism-based
Salmonella typhimurium [7] = assay: Antimicrobial activity against Salmonella Typhimurium ATCC 14028 assessed as inhibition of planktonic growth at 4 uM at 25 degC after 24 hrs; assay type: functional, organism-based; details: Salmonella enterica subsp. enterica serovar Typhimurium
Pseudomonas aeruginosa [8] = assay: Antimicrobial activity against Pseudomonas aeruginosa assessed as inhibition of planktonic growth at 20 uM at 25 degC after 24 hrs; assay type: functional, organism-based
Salmonella typhimurium [9] = assay: Antimicrobial activity against Salmonella Typhimurium ATCC 14028 assessed as inhibition of planktonic growth at 10 uM at 25 degC after 24 hrs; assay type: functional, organism-based; details: Salmonella enterica subsp. enterica serovar Typhimurium
Salmonella typhimurium [10] = assay: Antimicrobial activity against Salmonella Typhimurium ATCC 14028 assessed as inhibition of planktonic growth at 40 uM at 25 degC after 24 hrs; assay type: functional, organism-based; details: Salmonella enterica subsp. enterica serovar Typhimurium
Salmonella typhimurium [11] = assay: Antimicrobial activity against Salmonella Typhimurium ATCC 14028 assessed as inhibition of planktonic growth at 20 uM at 25 degC after 24 hrs; assay type: functional, organism-based; details: Salmonella enterica subsp. enterica serovar Typhimurium
Salmonella typhimurium [12] = assay: Antibiofilm activity in Salmonella Typhimurium ATCC 14028 assessed as inhibition of biofilm formation at 37 degC after 24 hrs; assay type: functional, organism-based, Salmonella enterica subsp. enterica serovar Typhimurium; details: Salmonella enterica, ATCC 14028, 24 h
Pseudomonas aeruginosa [13] = assay: Antibiofilm activity in Pseudomonas aeruginosa assessed as inhibition of biofilm formation at 37 degC after 24 hrs; assay type: functional, organism-based
Pseudomonas aeruginosa [14] = assay: Antimicrobial activity against Pseudomonas aeruginosa assessed as inhibition of planktonic growth at 20 uM at 37 degC after 24 hrs; assay type: functional, organism-based
Salmonella typhimurium [15] = assay: Antimicrobial activity against Salmonella Typhimurium ATCC 14028 assessed as inhibition of planktonic growth at 400 uM at 25 degC after 24 hrs; assay type: functional, organism-based; details: Salmonella enterica subsp. enterica serovar Typhimurium
Salmonella typhimurium [16] = assay: Antimicrobial activity against Salmonella Typhimurium ATCC 14028 assessed as inhibition of planktonic growth at 80 uM at 25 degC after 24 hrs; assay type: functional, organism-based; details: Salmonella enterica subsp. enterica serovar Typhimurium

SMILES	IC50 (Salmonella typhimurium [1]) [µM]	IC50 (Pseudomonas aeruginosa [4]) [µM]	IC50 (Salmonella typhimurium [12]) [µM]	IC50 (Pseudomonas aeruginosa [13]) [µM]	inhibition (Pseudomonas aeruginosa [2])	inhibition (Pseudomonas aeruginosa [3])	inhibition (Pseudomonas aeruginosa [5])	inhibition (Pseudomonas aeruginosa [6])	inhibition (Salmonella typhimurium [7])	inhibition (Pseudomonas aeruginosa [8])	inhibition (Salmonella typhimurium [9])	inhibition (Salmonella typhimurium [10])	inhibition (Salmonella typhimurium [11])	inhibition (Pseudomonas aeruginosa [14])	inhibition (Salmonella typhimurium [15])	inhibition (Salmonella typhimurium [16])
Nc1ncc(-c2ccccc2)n1C1CCCCCC1	26.9	14.2			inactive	inactive	inactive									
CCCCCn1c(-c2ccc(Cl)cc2)cnc1N	8	6				inactive		inactive	inactive	inactive	inactive	Active	Active			
Nc1ncc(-c2ccc(Cl)cc2)[nH]1	16	3.5	30.1	29.3				inactive	inactive			inactive		inactive	Active	
CCn1c(-c2ccc(Cl)cc2)cnc1N	53.2	11.3				inactive			inactive	inactive	inactive	Active	inactive			Active
Nc1nc(-c2ccccc2)c(-c2ccccc2)n1C1CCCCC1	23.9	5			inactive					inactive	inactive	inactive	inactive			inactive
CCCCCCCCn1c(-c2ccc([N+](=O)[O-])cc2)cnc1N	35.4											Active				Active
Nc1ncc(-c2ccccc2)n1C1CCCCCCCCCCC1	14.6	> 800									inactive	inactive				inactive
CCCCCn1c(-c2ccccc2)cnc1N	48.4	2.1			inactive	inactive	inactive	inactive	inactive		inactive	inactive	inactive			Active
CCn1c(-c2ccc(-c3ccccc3)cc2)cnc1N	14	95.1							inactive		inactive	Active	inactive			Active
Nc1ncc(-c2ccccc2)n1C1CCC1	116	19.9			inactive		inactive			inactive						
CCCCCCCCCCCCCCn1c(-c2ccc(Cl)cc2)cnc1N	453	19.1			inactive		inactive	inactive								
Nc1ncc(-c2ccc(-c3ccccc3)cc2)n1C1CCCC1	7.5	353							inactive		inactive	Active	Active			Active
Nc1ncc(-c2ccc(Cl)cc2)n1C1CCC1	11.6	6			inactive		Active	inactive			inactive	Active				Active
Nc1nc(-c2ccc(Cl)cc2)c(-c2ccc(C(F)(F)F)cc2)[nH]1	10.8								inactive		Active	Active	Active			Active
Cc1ccc(-c2[nH]c(N)nc2-c2ccc(Cl)cc2)cc1	12.9								inactive		Active	Active	Active			Active
Nc1ncc(-c2ccccc2)n1C1CCCCCCC1	40.5	4.5			inactive		inactive	inactive			inactive		inactive			Active
Nc1ncc(-c2ccccc2)n1C1CCCCC1	85.2	4.6			inactive		inactive	inactive								
Nc1nc(-c2ccc(F)cc2)c(-c2ccc(F)cc2)[nH]1	18.2								inactive		inactive	Active	Active			Active

Now from value to compound, other results behind:

IC50 (Salmonella typhimurium [1]) [µM]	IC50 (Pseudomonas aeruginosa [4]) [µM]	IC50 (Salmonella typhimurium [12]) [µM]	IC50 (Pseudomonas aeruginosa [13]) [µM]	SMILES	inhibition (Pseudomonas aeruginosa [2])	inhibition (Pseudomonas aeruginosa [3])	inhibition (Pseudomonas aeruginosa [5])	inhibition (Pseudomonas aeruginosa [6])	inhibition (Salmonella typhimurium [7])	inhibition (Pseudomonas aeruginosa [8])	inhibition (Salmonella typhimurium [9])	inhibition (Salmonella typhimurium [10])	inhibition (Salmonella typhimurium [11])	inhibition (Pseudomonas aeruginosa [14])	inhibition (Salmonella typhimurium [15])	inhibition (Salmonella typhimurium [16])
5.9	4			CCCCCCCCn1c(-c2ccc(Cl)cc2)cnc1N		Active		inactive	Active	Active	Active		Active			
16.4	> 400			CCCCCCCCCn1c(-c2ccc(-c3ccccc3)cc2)cnc1N								Active	inactive			Active
7.1	12.8			CCCCCCCCCCCCn1c(-c2ccccc2)cnc1N	inactive	inactive	inactive		inactive		Active		Active			
8.7	9.8			CCCCCCCCCCCCCCn1c(-c2ccccc2)cnc1N	inactive	inactive	inactive				inactive	inactive	inactive			inactive
1.5	1			CCCCCCCC[n+]1c(-c2ccc(-c3ccc([N+](=O)[O-])cc3)cc2)cn2cccnc21.[O-][Cl+3]([O-])([O-])[O-]	Active	Active		Active	Active	Active	Active					
6	8.4			CCCCCCCCCn1c(-c2ccccc2)cnc1N		inactive		inactive	inactive	Active	Active		Active			
5.7	> 400			CCCCCCCCCCn1c(-c2ccc(-c3ccccc3)cc2)cnc1N	inactive		inactive	inactive	inactive			inactive	inactive			
6	6.8			CCCCCCCC[n+]1c(-c2cccc3ccccc23)cn2cccnc21.[O-][Cl+3]([O-])([O-])[O-]	Active	Active		inactive	inactive	Active	Active					
